Data taken from US20150216865A1, “METHODS OF TREATING A BRUTON'S TYROSINE KINASE DISEASE OR DISORDER” (Celgene Avilomics Research, Inc., priority 2012, published 2015).
“Also recorded” adds a separate entry of the source. Like-named read-outs stand apart in the source and are kept apart here.

Key:
Btk = Btk (Homo sapiens, UniProt Q06187); test: Clinical single dose study, Btk occupancy in enriched B cells (covalent probe ELISA); type: in vivo
Protocol: Btk Target Site Occupancy ELISA: An ELISA method for the detection of free uninhibited Btk in mouse, rat, dog, monkey, and human lysates was developed at Celgene Avilomics Research and a validation of this method in human B cell lysate was performed by a CLIA Certified laboratory (Cambridge Biomedical Laboratories, Boston, Mass.) The parameters that were assessed included: accuracy, linearity, dilution, precision (intra and inter-assay), stability, reference range, freeze-thaw cycles, reportable range, specificity, sensitivity, and carryover. […] Standards and samples were transferred to a streptavidin-coated 96-well ELISA plate and mixed while shaking for 1 h at room temperature. […] After wash, goat α-mouse-HRP (1:5000 dilution in PBS+0.05% Tween-20+0.5% BSA) was added and incubated for 1 h at room temperature. The ELISA was developed with addition of tetramethyl benzidine (TMB) followed by Stop Solution and read at OD 450 nm.
Clinical Study: A double blind, placebo-controlled, ascending single dose, randomized study in normal healthy human volunteers was conducted at a single clinical research unit in accordance with Declaration of Helsinki principles. Informed consent statements were obtained from all subjects prior to inclusion in the study. Subjects were admitted to the unit 1 day before dosing and discharged 96 h after dosing.
Isolation of Enriched B Lymphocyte Population from Human Healthy Volunteers: 21 mL of human whole blood was collected from each subject at each time point into BD® Vacutainer® CPT Cell Preparation Tubes containing sodium heparin. […] Isolated cells were harvested into a clean 50 mL conical tube that was pooled by subject. […] Cell suspensions were diluted in 1 mL of red blood cell lysis buffer for 3 minutes at room temperature. […] The lysates were stored frozen at ≦−70° C. until Btk target site occupancy analysis by ELISA.

male NOD mice [1] = test: NOD mouse model, salivary gland histopathology; type: in vivo; conditions: 20 weeks of age
Text: (§1) Histopathology. Samples of lachrymal gland and salivary glands from all animals were fixed for Haematoxylin & Eosin histological analysis. Sections were inspected blind by a qualified histopathologist and scored for signs of pathology according to a semi-quantitative scoring system. This system is based on the mean number of inflammatory foci comprising 50 or more mononuclear inflammatory cells per objective field. The ratio of infiltrated to normal glandular tissue was expressed on a five point scale.
(i) Focus Score. The mean number of inflammatory foci comprising ≧50 mononuclear inflammatory cells per ×10 objective field was counted. Five such fields were assessed (where possible) to derive this index and these are selected to contain the maximum number of such foci. Where the overall area of the tissue section was less than five fields, the number of ×10 objective fields was recorded and used to determine the focus score. (ii) Area Score. The ratio of infiltrated to normal glandular tissue was expressed on a five point scale: • 0: No infiltrates • 1: 0-25% of the tissue section infiltrated • 2: 26-50% of the tissue section infiltrated • 3: 51-75% of the tissue section infiltrated • 4: 76-100% of the tissue section infiltrated
Salivary Gland Histopathology. […] Sections were examined and scored for two criteria: Focus Score and Area Score as outlined above.

male NOD mice [2] = test: NOD mouse model, lachrymal gland secretion (cotton thread test); type: in vivo; conditions: besylate
Protocol: Non-Obese Diabetic Mouse (NOD) Model of Sjogren's Syndrome. Male Non Obese Diabetic (NOD) mice from the KWS BioTest NOD colony and male BALB/c mice were randomly allocated to experimental groups and allowed to acclimatise for one week prior to the beginning of the study. From six weeks of age, animals were treated according to the administration schedule in Table 5, below. Each group consisted of n=12 animals. The administration volume was 15 ml/kg from 6-12 weeks of age. The administration volume was then decreased to 10 ml/kg from 13-20 weeks of age. The vehicle was distilled water pH 3.0-3.5 for Group 7. The vehicle was 0.5% methylcellulose and 0.25% Tween® 80 for all other groups.
Measurement of lachrymal gland secretion. Lachrymal gland secretion was measured every other week from six weeks of age using a cotton thread test. Briefly, animals were anaesthetised and a fluorescein-stained cotton thread was inserted under the eye lid in the medial canthus region and held in place for two minutes. Results for each group were graphed and presented with SEM's.
Lachrymal Gland Secretion. Lachrymal gland secretion was measured by the cotton thread test. Data are expressed as millimetres per gram bodyweight. Data from this readout are indicative of inflammatory changes in the lachrymal gland, but significant changes are typically only seen from weeks 18 onwards in NOD mice. Data were analysed by two-way ANOVA for repeated measures followed by Dunnett's post-test for multiple comparisons to the vehicle-treated group and presented as mean±SEM (FIG. 14).

male NOD mice [3] = test: NOD mouse model, lachrymal gland histopathology; type: in vivo; conditions: 20 weeks of age
Text: as §1
Lachrymal Gland Histopathology. Lachrymal glands from Control BALB/c mice (n=12 mice) and vehicle-treated NOD mice (n=9 mice) were examined and scored, in order to validate the model. For each animal, one section from the right lachrymal gland and one section from the left lachrymal gland were prepared. Sections were examined and scored for two criteria:
(i) Focus Score. The mean number of inflammatory foci comprising ≧50 mononuclear inflammatory cells per ×10 objective field was counted. Five such fields were assessed (where possible) to derive this index and these are selected to contain the maximum number of such foci. Where the overall area of the tissue section was less than five fields, the number of ×10 objective fields was recorded and used to determine the focus score. (ii) Area Score. […]

[4] = tested on: semi-established CIA Dba1 mice; test: Semi-established collagen induced arthritis (CIA) model; type: in vivo, mouse; conditions: 3 mg/kg, 10 mg/kg or 30 mg/kg daily
Protocol: Semi-Established Collagen Induced Arthritis (CIA) Arthritis Model. Experiments were carried out at Bolder Biopath, Boulder, Colo. All experiments were carried out in compliance with regulations of the Institutional Animal Care and Use Committee and were conducted in accordance with principles and procedures dictated by the highest standards of humane animal care. Dba1 mice were injected at the base of the tail with 150 μL of Freund's Complete Adjuvant (Sigma) containing bovine type II collagen (Elastin Products, Owensville, Mo.) (2 mg/ml) on day 0 and again on day 21. Mice were randomized into treatment groups on study day 21, and treatment was initiated. Treatment continued daily (3 mg/kg, 10 mg/kg or 30 mg/kg QD at 24 hour intervals) through day 33, and mice were terminated on day 33 (animals 1-6) or day 34 (animals 7-12). Onset of arthritis occurred between study days 21 and 34. Clinical scores were assessed for each of the paws on study days 21-34 using the following scoring system: 0=normal, 1=one hind or fore paw joint affected or minimal diffuse erythema and swelling, 2=two hind or fore paw joints affected or mild diffuse erythema and swelling, 3=three hind or fore paw joints affected or moderate diffuse erythema and swelling, 4=marked diffuse erythema and swelling or =four digit joints affected, 5=severe diffuse erythema and severe swelling entire paw, unable to flex digits. Spleens and plasma were harvested at necropsy (day 33 for animals 1-6 and day 34 for animals 7-12) and paws were removed and fixed in formalin for histopathological analysis.

Sequence of Btk (Q06187 whole entry): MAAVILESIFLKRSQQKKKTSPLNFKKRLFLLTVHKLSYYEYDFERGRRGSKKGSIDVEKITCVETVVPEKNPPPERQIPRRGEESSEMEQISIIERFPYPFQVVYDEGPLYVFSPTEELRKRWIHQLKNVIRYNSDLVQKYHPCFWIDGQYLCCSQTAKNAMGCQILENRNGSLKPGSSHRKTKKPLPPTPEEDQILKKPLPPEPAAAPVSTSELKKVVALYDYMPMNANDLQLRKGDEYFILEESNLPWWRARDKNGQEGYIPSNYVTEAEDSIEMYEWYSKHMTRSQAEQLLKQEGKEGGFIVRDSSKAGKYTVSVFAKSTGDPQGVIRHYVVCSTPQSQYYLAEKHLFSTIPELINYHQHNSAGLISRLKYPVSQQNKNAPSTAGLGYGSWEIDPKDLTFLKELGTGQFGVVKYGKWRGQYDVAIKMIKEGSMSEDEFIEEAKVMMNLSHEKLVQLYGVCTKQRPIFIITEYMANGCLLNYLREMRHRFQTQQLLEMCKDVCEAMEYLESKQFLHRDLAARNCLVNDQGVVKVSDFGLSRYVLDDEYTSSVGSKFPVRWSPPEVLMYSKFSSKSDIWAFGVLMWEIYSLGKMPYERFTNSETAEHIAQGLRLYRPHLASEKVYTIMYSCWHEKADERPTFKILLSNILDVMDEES

SMILES: C=CC(=O)Nc1cccc(Nc2nc(Nc3ccc(OCCOC)cc3)ncc2F)c1 [Compound 1 besylate, N-(3-(5-fluoro-2-(4-(2-methoxyethoxyl)phenylamino)pyrimidin-4-ylamino)phenyl)acrylamide besylate]
- receptor occupancy at 2 mg/kg (Btk; 2 mg/kg, 4 hours, read-out: average cohort Btk occupancy (maximal)): > 97%
- time complete or near-complete Btk occupancy was sustained (Btk; 2.0 mg/kg, all 6 subjects): 8 to 24 h
- receptor occupancy at 2 mg/kg (Btk; 2.0 mg/kg, within 4 hours, read-out: Btk occupancy, 5 of 6 subjects): > 98%
- receptor occupancy at 2 mg/kg (Btk; 2.0 mg/kg, within 4 hours, read-out: Btk occupancy, 6th subject): 84%
- average Btk re-synthesis rate (Btk; after single oral 2.0 mg/kg): 3.0 pg Btk/ug protein/hour
- free Btk protein levels recovered, % of pre-dose values (Btk; within 96 hours): ~75%
- salivary gland Area Score (proportion of infiltrated glandular tissue) vs vehicle (male NOD mice [1]): did not reduce
- salivary gland Focus Score (number of inflammatory foci) vs vehicle (male NOD mice [1]): did not reduce
- lachrymal gland secretion vs vehicle (male NOD mice [2]; 30 mg/kg SID, 10, 18 and 20 weeks of age): significantly higher; also recorded: statistically significant increase
- lachrymal gland secretion vs vehicle (male NOD mice [2]; 50 mg/kg twice daily, 6, 8, 10, 18 and 20 weeks of age): significantly higher; also recorded: statistically significant increase
- lachrymal gland secretion vs vehicle (male NOD mice [2]; 100 mg/kg SID, 8, 10, 12, 16, 18 and 20 weeks of age): significantly higher; also recorded: statistically significant increase
- lachrymal gland secretion vs vehicle (male NOD mice [2]; ad libitum 0.16 mg/ml in drinking water, 10, 16, 18 and 20 weeks of age): significantly higher; also recorded: statistically significant increase
- lachrymal gland Area Score (proportion of infiltrated glandular tissue) vs vehicle (male NOD mice [3]): did not reduce
- lachrymal gland Focus Score (number of inflammatory foci) vs vehicle (male NOD mice [3]): did not reduce
- effect on clinical parameters of developing type II collagen arthritis [4]: significant beneficial effect
